A value given as a limit tells only on which side of the number the result lay.

The nature of data set [1]: Cytotoxicity against human NCI-H460 cells and measured after 48 hrs by MTT assay. Format: toxicity, cell-based.
Data set [2] is described as follows: Cytotoxicity against human SW-620 cells and measured after 48 hrs by MTT assay. Format: toxicity, cell-based.
Data set [3] deals with Candida albicans. Kind of data set: Antifungal activity against Candida albicans ATCC 10231 incubated for 16 to 24 hrs by broth microdilution based spectrophotometric analysis. The data set is classed as functional, organism-based.
For data set [4], the system named is Escherichia coli. Kind of data set: Antibacterial activity against Escherichia coli ATCC 11775 incubated for 16 to 24 hrs by broth microdilution based spectrophotometric analysis. The data set is classed as functional, organism-based.
Data set [5] has as its system Mycobacterium tuberculosis. Kind of data set: Antibacterial activity against Mycobacterium tuberculosis H37Ra ATCC 25177 incubated for 16 to 24 hrs by broth microdilution based spectrophotometric analysis. Format: functional, organism-based.
Data set [6] has as its system Staphylococcus aureus. Put plainly: Antibacterial activity against Staphylococcus aureus ATCC 25923 incubated for 16 to 24 hrs by broth microdilution based spectrophotometric analysis. The data set is classed as functional, organism-based.
Data set [7] deals with Enterococcus faecalis. Put plainly: Antibacterial activity against Enterococcus faecalis incubated for 16 to 24 hrs by broth microdilution based spectrophotometric analysis. The data set is classed as functional, organism-based.
Data set [8] has as its system Staphylococcus aureus. Kind of data set: Antibacterial activity against methicillin-resistant Staphylococcus aureus ATCC 43300 incubated for 16 to 24 hrs by broth microdilution based spectrophotometric analysis. Format: functional, organism-based.
In data set [9] the test system is Staphylococcus aureus. Put plainly: Antibacterial activity against methicillin-resistant Staphylococcus aureus ATCC 33591 incubated for 16 to 24 hrs by broth microdilution based spectrophotometric analysis. The data set is classed as functional, organism-based.
The subject of data set [10] is Enterococcus faecium. Kind of data set: Antibacterial activity against vancomycin-resistant Enterococcus faecium incubated for 16 to 24 hrs by broth microdilution based spectrophotometric analysis. Format: functional, organism-based.
Data set [11] relates to Staphylococcus aureus. Put plainly: Antibacterial activity against Staphylococcus aureus ATCC 25923 incubated for 16 to 24 hrs in presence of rifampin by broth microdilution based spectrophotometric analysis. Format: functional, organism-based.
Data set [12] concerns Enterococcus faecalis. Put plainly: Antibacterial activity against Enterococcus faecalis incubated for 16 to 24 hrs in presence of rifampicin by broth microdilution based spectrophotometric analysis. The data set is classed as functional, organism-based.
The subject of data set [13] is Staphylococcus aureus. Put plainly: Antibacterial activity against Staphylococcus aureus ATCC 25923 incubated for 16 to 24 hrs in presence of ampicillin by broth microdilution based spectrophotometric analysis. The data set is classed as functional, organism-based.
The subject of data set [14] is Enterococcus faecalis. Kind of data set: Antibacterial activity against Enterococcus faecalis incubated for 16 to 24 hrs in presence of ampicillin by broth microdilution based spectrophotometric analysis. The data set is classed as functional, organism-based.

Regarding `COc1cc(C)c(C(=O)O[C@H]2[C@@H](O)[C@H](O[C@H]3CC[C@H](C)[C@@H]4[C@@H]3C=C(C)[C@H]3/C(C)=C/CC/C(C)=C/[C@@H]5C=C(C(=O)O)[C@H](C)C[C@]56OC(=O)C(=C6O)C(=O)[C@@]43C)O[C@H](C)[C@H]2O)c(O)c1`, the IC50 at 48 h in [1] and in [2] was above 30 µM throughout. In addition, the IC50 in [3] was above 30 µM; in data set [4], above 30 µM; in [5], above 30 µM; in [6] it was 8.4 µM; in data set [7], 8.9 µM; in [8] it was 7.9 µM. The concentration for half-maximal inhibition (IC50) worked out at 5.8 µM in [9] and 2.9 µM in data set [10].
In the case of `COc1cc(C)c(C(=O)O[C@H]2[C@H](O[C@H]3CC[C@H](C)[C@@H]4[C@@H]3C=C(C)[C@H]3/C(C)=C/CC/C(C)=C/[C@@H]5C=C(C(=O)O)[C@H](C)C[C@]56OC(=O)C(=C6O)C(=O)[C@@]43C)O[C@H](C)[C@@H](O)[C@H]2O)c(O)c1`, the IC50 at 48 h in data set [1] and in data set [2] was above 30 µM throughout. For the same compound, the IC50 was above 30 µM in data set [3]; above 30 µM in [4]; above 30 µM in [5]; 18.4 µM in data set [6]; 2.7 µM in data set [7]; 16.3 µM in data set [8]. Besides, the IC50 in data set [9] worked out at 8.6 µM; in data set [10], 2.9 µM.
Take `CC1(C)S[C@@H]2[C@H](NC(=O)[C@H](N)c3ccccc3)C(=O)N2[C@H]1C(=O)O` [AMPICILLIN]: the IC50 in [11] and in data set [12] was below 10 µM in each case.
Turning to `COc1cc(C)c(C(=O)O[C@H]2[C@@H](O)[C@@H](O)[C@H](O[C@H]3CC[C@H](C)[C@@H]4[C@@H]3C=C(C)[C@H]3/C(C)=C/CC/C(C)=C/[C@]5(C)C=C(C(=O)O)[C@H](C)C[C@]56OC(=O)C(=C6O)C(=O)[C@@]43C)O[C@@H]2C)c(OC)c1`, the IC50 at 48 h in [1] and in [2] was above 30 µM throughout. Besides, the half-inhibitory concentration (IC50) in [3] is above 30 µM; in data set [4], above 30 µM; in [5], above 30 µM; in [6], 4.9 µM; in [7], 6.2 µM; in data set [8], 3.9 µM. Also, the half-inhibitory concentration (IC50) in data set [9] turned out to be 2.3 µM; in data set [10], 3.2 µM.
`CO[C@H]1/C=C/O[C@@]2(C)Oc3c(C)c(O)c4c(O)c(c(/C=N/N5CCN(C)CC5)c(O)c4c3C2=O)NC(=O)/C(C)=C\C=C\[C@H](C)[C@H](O)[C@@H](C)[C@@H](O)[C@@H](C)[C@H](OC(C)=O)[C@@H]1C` [RIFAMPIN]: the IC50 in data set [13] and in data set [14] was below 10 µM in each case.
Regarding `COc1cc(C)c(C(=O)O[C@H]2[C@@H](O)[C@@H](O)[C@H](O[C@H]3CC[C@H](C)[C@@H]4[C@@H]3C=C(C)[C@H]3/C(C)=C/CC/C(C)=C/[C@]5(C)C=C(C(=O)O)[C@H](C)C[C@]56OC(=O)C(=C6O)C(=O)[C@@]43C)O[C@@H]2C)c(O)c1`, the IC50 at 48 h in data set [1] and in data set [2] was above 30 µM in each case. Moreover, the IC50 in data set [3], in data set [4], in [5], in data set [6], in data set [7] and in data set [8] was above 30 µM each time. Besides, the half-maximal inhibitory concentration (IC50) in data set [9] and in [10] was above 30 µM in each case.
As for `CC1=C[C@@]2(C)/C=C(\C)CC/C=C(\C)[C@@H]3C(C)=C[C@H]4[C@@H]([C@@H](C)CC[C@@H]4O)[C@]3(C)C(=O)C3=C(O)[C@@]2(C[C@H]1C)OC3=O`, the IC50 at 48 h in [1] and in [2] was above 30 µM each time. Moreover, the IC50 is above 30 µM in data set [3]; above 30 µM in data set [4]; above 30 µM in [5]; 16.4 µM in data set [6]; above 30 µM in [7]; 3.8 µM in data set [8]. Further, the concentration for half-maximal inhibition (IC50) is 8.4 µM in data set [9] and above 30 µM in data set [10].
Consider `COc1cc(C)c(C(=O)O[C@H]2[C@@H](O)[C@@H](O)[C@H](O[C@H]3CC[C@H](C)[C@@H]4[C@@H]3C=C(C)[C@H]3/C(C)=C/CC/C(C)=C/[C@@H]5C=C(C(=O)O)[C@H](C)C[C@]56OC(=O)C(=C6O)C(=O)[C@@]43C)O[C@@H]2C)c(O)c1`, for which the IC50 at 48 h in data set [1] and in data set [2] was above 30 µM in each case. In addition, the IC50 in [3] was above 30 µM; in data set [4], above 30 µM; in [5], above 30 µM; in data set [6] it was 15.3 µM; in [7] it was 3.1 µM; in [8], 6.3 µM. In addition, the IC50 amounted to 8.3 µM in data set [9] and 5.4 µM in data set [10].
Regarding `COc1cc(C)c(C(=O)O[C@H]2[C@H](O[C@H]3CC[C@H](C)[C@@H]4[C@@H]3C=C(C)[C@H]3/C(C)=C/CC/C(C)=C/[C@]5(C)C=C(C(=O)O)[C@H](C)C[C@]56OC(=O)C(=C6O)C(=O)[C@@]43C)O[C@H](C)[C@@H](O)[C@H]2O)c(O)c1`, the half-inhibitory concentration (IC50) at 48 h in data set [1] and in data set [2] was above 30 µM each time. The IC50 in [3] was above 30 µM; in data set [4], above 30 µM; in data set [5], above 30 µM; in data set [6] it was 10 µM; in data set [7], 13 µM; in data set [8], 15.2 µM. For the same compound, the IC50 in data set [9] amounted to 10.2 µM; in data set [10], 7.3 µM.
